# Laboratory results as given in PubChem BioAssay AID1288 (Columbia University Molecular Screening Center, 2008).
# The source made the active and inactive calls. The rule behind the calls is not given here.
# Assay: E-selectin induction blockers, endothelial cells – imaging, retest plus dose response, cell count, confirmation (AID 1288);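 note: 0% = stimulated vehicle wells and 100% = unstimulated vehicle wells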
# Conditions: human endothelial cells, TNFa-induced E-selectin, imaging; at 2 µM; stronger effect = higher value
row,SMILES,inhibition
1,OCCNCCOc1ccc(Cl)c(Cl)c1,1.74% (inactive)
2,COc1ccc(NC(=O)c2cccnc2Cl)c(S(=O)(=O)N2CCOCC2)c1,6.27% (inactive)
3,O=C(Cn1cc(C(=O)C(F)(F)F)c2cc(Br)ccc21)N1CCOCC1,7.56% (inactive)
4,O=C1CC(c2ccccc2)SC(N(c2ccccc2)c2ccccc2)=N1 (centres undefined),26.1% (inactive)
5,COc1ccc(OC)c2sc(NC(=O)CCS(=O)(=O)c3ccccc3)nc12,5.59% (inactive)
6,Cc1cc(C)n2nc(C(=O)N(C)C(c3ccccc3)c3ccccc3)nc2n1,7.77% (inactive)
7,CC12CCC3(CO)COC(c4ccccc4O1)C2C3 (centres undefined),13.6% (inactive)
8,Oc1ccc(-c2csc(-c3ccccc3)n2)cc1O,35.9% (inactive)
9,CSc1ccc(/C=N/NC(=O)CN2CCN(Cc3ccc(C)cc3)CC2)cc1,-1.62% (inactive)
10,c1ccc(Nc2nc3ccccc3n3cnnc23)cc1,6.89% (inactive)
11,CN(C)c1ccc(NC(=O)COC(=O)Cn2nnc3ccccc32)cc1,0.53% (inactive)
12,CC(C)=C1SC(N2CCN(c3ccc(C)cc3)CC2)=NC1=O,-3.72% (inactive)
13,COc1cc(C2C(C#N)=C(N)Oc3cc(C)n(CCc4ccccc4)c(=O)c32)cc2c1OCO2 (centres undefined),4.3% (inactive)
14,CCC(=O)c1ccc(N2CCOCC2)c(F)c1,10.3% (inactive)
15,O=C(CSc1ncnc2nc[nH]c12)Nc1ccccc1C(F)(F)F,30.5% (inactive)
16,CCN(CC)CCNS(=O)(=O)c1ccc(/C=C/C(=O)O)cc1,13.4% (inactive)
17,CC(C)(C)OC(=O)NNC(=O)NC12CC3CC(CC(C3)C1)C2,3.2% (inactive)
18,COc1cc(/C=C2\SC(=S)N(CC(=O)Nc3ccc(O)cc3)C2=O)cc(OC)c1OC,-1.6% (inactive)
19,Cc1ccc(NC(=O)c2ccc(OC(=O)CCN3C(=O)c4ccccc4C3=O)cc2)cc1,42.6% (inactive)
20,C=C(C)CC(NCCc1ccccc1)c1ccco1 (centres undefined),1.31% (inactive)
21,O=c1ncn(-c2ccccc2F)c2ncccc12,1.5% (inactive)
22,CC(=O)c1cccc(NS(=O)(=O)N2CCCCC2)c1,-4.42% (inactive)
23,COc1cccc(CNc2ccc(F)c(Cl)c2)c1,39.9% (inactive)
24,Cc1c(N=C/C=C2\N(C)c3ccccc3C2(C)C)c(=O)n(-c2ccccc2)n1C,1.21% (inactive)
25,COc1ccc(C2=NNC(c3cccs3)=Nc3ccc(OC)cc32)cc1,17.8% (inactive)

row,SMILES,inhibition
1,CC(CCc1ccccc1)NC(=O)/C=C/c1ccc(Cl)cc1 (centres undefined),14.9% (inactive)
2,Cc1ccc(CNCC(O)(c2ccccc2)c2ccc(Cl)cc2)cc1 (centres undefined),5.94% (inactive)
3,O=C(Nc1cccc(-c2cn3ccccc3n2)c1)c1cccc(Cl)c1,8.96% (inactive)
4,COc1ccc(NC(=O)N(CCCN2CCOCC2)Cc2cccnc2)c(OC)c1,3.7% (inactive)
5,O=[N+]([O-])c1ccc(O)c(/C=N/Nc2ccc(Cl)nn2)c1,3.18% (inactive)
6,CCOC(=O)c1c(NC(=O)COC)sc2c1CCCC2,17.5% (inactive)
7,COc1ccccc1OCCn1cc(C(=O)c2ccco2)c2ccccc21,12.3% (inactive)
8,COC(=O)CCC(=O)Nc1nc(-c2ccccc2)cs1,16.6% (inactive)
9,CCOC(=O)C(C)Oc1cccc2c(=O)n(CC(=O)Nc3cccc(OC)c3)ccc12 (centres undefined),22.4% (inactive)
10,Cc1ccc(-c2cc(NC(=O)CCl)n(-c3ccccc3)n2)cc1,-2.61% (inactive)
11,O=C(/C=C/c1ccccc1)Nc1ncn[nH]1,5.62% (inactive)
12,CCOC(=O)c1ccccc1NC(=O)c1ccc(N(C)S(C)(=O)=O)cc1,15.2% (inactive)
13,Cc1cccc(NC(=O)Nc2ccc(C#N)cc2)n1,4.19% (inactive)
14,COc1ccccc1Cc1nc(-c2ccncc2)no1,13.1% (inactive)
15,Cn1c(SCc2ccc(C#N)cc2)nnc1-c1cccc(Cl)c1,7.7% (inactive)
16,Cc1ccc(CNc2ccc(S(=O)(=O)N3CCOCC3)cc2[N+](=O)[O-])cc1,0.77% (inactive)
17,CC(C)n1c(SCC(=O)Nc2nc3c(s2)CCCC3)nc2c1c(=O)n(C)c(=O)n2C,3.36% (inactive)
18,CCOCc1nnc(NC(=O)CCc2ccccc2)s1,9.8% (inactive)
19,CC1CC(Nc2ccccc2)=CC(=O)O1 (centres undefined),-4.3% (inactive)
20,CCOC(=O)N1CCC(NC(=O)CN2C(=O)CSc3nc(C)cc(C)c32)CC1,3.53% (inactive)
21,COc1ccc(NC(=O)c2ccc(CNc3c(NC4CCCCC4)c(=O)c3=O)cc2)cc1OC,3.32% (inactive)
22,O=c1cc(O)n(-c2ccc(F)cc2)c(=S)[nH]1,-0.2% (inactive)
23,Cc1ccc(C)c(N(CC(=O)NCCSCc2ccco2)S(C)(=O)=O)c1,6.59% (inactive)
24,Cc1ccc(-n2c(SCC(=O)Nc3ccc4c(c3)OCCO4)nnc2-c2ccco2)cc1,5.17% (inactive)
25,COc1ccc(CCNC(=O)COc2ncnc3cc([N+](=O)[O-])ccc23)cc1,15.8% (inactive)

row,SMILES,inhibition
1,O=C(NC1CCCCC1)C(c1cccs1)N(C(=O)c1ccco1)c1ccc2c(c1)OCCO2 (centres undefined),8.94% (inactive)
2,O=C(CSc1ccccn1)N/N=C/c1ccccc1[N+](=O)[O-],5.02% (inactive)
3,Cc1ccccc1OCCCC(=O)Nc1ccc(N2CCOCC2)cc1,4.18% (inactive)
4,CCOC(=O)c1sc2nc(CSc3nc4ccccc4n3CC)[nH]c(=O)c2c1C,-2.72% (inactive)
5,CCCCCC1NC(=O)NC1CCCCCC(=O)O (centres undefined),0.1% (inactive)
6,CC(C)Cn1c(-c2cccs2)nc2ccccc21,25.7% (inactive)
7,COc1ccc(C(=O)C(CN2CCOCC2)c2ccccc2)cc1F (centres undefined),0.43% (inactive)
8,CC1(C)CC(=O)C(C=NCC2CCCO2)=C(O)C1 (centres undefined),17.9% (inactive)
9,Fc1cccc(F)c1CSc1nc2ccccc2[nH]1,3.56% (inactive)
10,OC(c1ccc2c(c1)OCO2)c1nccc2ccccc12 (centres undefined),4.74% (inactive)
11,O=C(NC(=O)c1cccc(OC(F)(F)C(F)F)c1)OC1CCS(=O)(=O)C1 (centres undefined),22.5% (inactive)
12,COc1cccc(-c2cnc(NCc3cc(Cl)ccc3O)n2C)c1,3.22% (inactive)
13,O=C(CSc1nc2ccccc2[nH]1)N1CCN(S(=O)(=O)c2ccc(Cl)cc2)CC1,3.87% (inactive)
14,Cc1cc(S(=O)(=O)N2CCN(c3ccccc3O)CC2)c(C)s1,5.21% (inactive)
15,O=c1ccc2ccc(OCc3nnc(-c4ccccc4Br)o3)cc2o1,2.48% (inactive)
16,N#CC(C#N)=C/C(C#N)=C(/N)N1CCN(c2ccc(Cl)cc2)CC1,6.82% (inactive)
17,COc1ccc(NC(=O)c2c(C)oc3c2CCCC3)cc1,3.37% (inactive)
18,CCCNc1ncnc2sc(C)c(C)c12,12.7% (inactive)
19,CC(Sc1nnc2c(n1)C1CCC2(C)C1(C)C)C(=O)Nc1ccccc1 (centres undefined),9.66% (inactive)
20,CCCCN1C(=O)C2C3C=CC(C2C1=O)C1C2C(=O)N(CCCC)C(=O)C2C31 (centres undefined),28.4% (inactive)
21,COCCCNCCCCOc1ccc(OCc2ccccc2)cc1,-0.12% (inactive)
22,O=C(Oc1ccccc1N1C(=O)C2CC=CCC2C1=O)c1ccc(Br)cc1 (centres undefined),5.75% (inactive)
23,O=C(N/N=C1/CCS(=O)(=O)c2ccc(F)cc21)c1ccccn1,8.24% (inactive)
24,COc1ccccc1C(=O)NC(CCSC)C(=O)OCC(=O)NC(=O)NCc1ccco1 (centres undefined),28% (inactive)
25,CCC(C)Nc1nc(OC(C(F)(F)F)C(F)(F)F)nc(OC(C(F)(F)F)C(F)(F)F)n1 (centres undefined),9.28% (inactive)

row,SMILES,inhibition
1,COc1cccc(N2CC(C(=O)Nc3nnc(SCC(=O)c4ccccc4)s3)CC2=O)c1 (centres undefined),9.31% (inactive)
2,O=C(Nc1ccc(Cl)cc1)Nc1nnc(CSc2ccc(Cl)cc2)s1,6.9% (inactive)
3,O=C(O)c1cc2nc(-c3ccc(F)cc3)cc(C(F)(F)F)n2n1,8.45% (inactive)
4,Cc1ccc(C)n1NC(=O)c1cccs1,7.45% (inactive)
5,CSc1cccc(NC(=O)C2CCCN(S(=O)(=O)c3ccc(F)cc3)C2)c1 (centres undefined),35.8% (inactive)
6,COc1ccc(OC)c(S(=O)(=O)N(C)CC(=O)Nc2ccc3c(c2)OCO3)c1,5.06% (inactive)
7,COC(=O)C1=NN(c2cccc(C)c2)C2C(=O)N(c3ccccc3OC)C(=O)C12 (centres undefined),8.46% (inactive)
8,CCOc1ccc(NC(=O)/C=C/c2ccc(OC)cc2)c([N+](=O)[O-])c1,13.8% (inactive)
9,Cc1ccc(C(=O)c2c(NC(=O)c3ccccc3C)sc(C)c2C)cc1,4.34% (inactive)
10,C=CCn1c(COc2cccc(C)c2C)nnc1SCC(=O)N1CCN(c2ccccc2)CC1,5.6% (inactive)
11,c1csc(C(c2nnnn2C2CCCC2)N2CCCC3(CCCCC3)C2)c1 (centres undefined),-3.21% (inactive)
12,O=C(NCc1ccccc1)N1CCN(c2ccc(Cl)c(Cl)c2)CC1,15.4% (inactive)
13,CCCCN(CCCC)S(=O)(=O)c1ccc(NC(=O)c2cccs2)cc1,-4.73% (inactive)
14,CC(Oc1ccc(Cl)cc1Cl)C(=O)N(Cc1ccco1)C1CCS(=O)(=O)C1 (centres undefined),33.5% (inactive)
15,COCCOC(=O)c1c(NC(=O)CN2CCOCC2)sc(C(N)=O)c1C,16.3% (inactive)
16,COc1ccc(C2CC(O)(C(C)(C)O)NO2)cc1 (centres undefined),-4.94% (inactive)
17,CCC(=O)Nc1cccc(NC(=O)CSc2nnc(-c3ccc(NS(C)(=O)=O)cc3)n2C)c1,-2.9% (inactive)
18,Cn1c(SCC(=O)N2CCOCC2)nnc1-c1cccc(NC(=O)c2ccccc2)c1,-2.57% (inactive)
19,CC1Cc2cc(/C(O)=C3/C(=O)C(=O)N(CCCn4ccnc4)C3c3ccncc3)ccc2O1 (centres undefined),5.53% (inactive)
20,COc1ccc(OCC(=O)N2CCN(Cc3c[nH]c4ccccc34)CC2)cc1,-1.94% (inactive)
21,O=C1CC(N(Cc2cccs2)C(=O)Nc2ccccc2)C(=O)N1c1ccc(Cl)cc1 (centres undefined),-1.04% (inactive)
22,N=C(N)SCc1nc2ccccc2c(=O)n1-c1ccccc1,9.67% (inactive)
23,COc1cc(CN2CCN(c3ccc(C)cc3)CC2)cc([N+](=O)[O-])c1O,24.7% (inactive)
24,COCCN1CN(S(=O)(=O)c2ccccc2)c2nc3ccccc3nc21,2.89% (inactive)
